The test system of assay [1] is human lung cancer cell lines (A549). The experiment in a line: SRB screening of inhibitory activity against human lung cancer cell lines (A549). In kind it is cell-based. The settings on record: A549 cells, compound concentration 1×10^−4 M, SRB method; for inhibition at 100 µM: Homo sapiens, 72 h, read-out: Inhibitory ratio (%). The source says: (§1) The inhibitory activity against colon cancer cell lines (HCT-116) and human lung cancer cell lines (A549) were screened with an SRB method. The procedure of screening was described in the reference (Li M. H., Miao Z. H., Tan W. F. et al. Clin. Cancer Res. 2004, 10(24): 8266-8274).
(§2) Detailed experimental procedure is as follows:
(§3) (1) According to the growth rate of tumor cells, colon cancer cell lines (HCT-116) in logarithmic growth phase were inoculated in 96-well culture plates and allowed to adhere to the wall for 24 h. The medicants with a concentration of 1×10^−4 M were added. Three replicate wells were set for the concentration, and saline control and non-apoptotic well of the corresponding concentration were set. The tumor/cancer cells were incubated for 72 hours at 37 in 5% CO2; (2) the plates were taken out, and the cells were fixed in each well with 10% cold […] (TCA) solution at 4 for 1 hour; (3) the fixation fluid was removed, and the plates were rinsed 5 times with distilled water and naturally dried in air; (4) SRB solution prepared from glacial acetic acid (1%) was added to stain at room temperature for 15 min; (5) the supernatant was removed, and the residue was washed 5 times with 1% acetic acid and air-dried; (6) finally Tris solution was added and the plates were shaken on a plate shaker for 5 min. Absorbance value at 560 nm (A560) was determined by using a wavelength-tunable microplate reader. Enzyme inhibitory ratio was calculated with the following formula: […]
(§4) The activities of the compounds represented by formula (I) or salts thereof of inhibiting colon cancer cell lines (HCT-116) and human lung cancer cell lines A549 at a concentration of 1×10^−4 M were determined.

The subject of assay [2] is colon cancer cell lines (HCT-116). The experiment in a line: SRB screening of inhibitory activity against colon cancer cell lines (HCT-116). The settings on record: HCT-116 cells, compound concentration 1×10^−4 M, 72 hours incubation, SRB method, A560; for inhibition at 100 µM: Homo sapiens, read-out: Inhibitory ratio (%). In kind it is cell-based.
Text: as §1, §2, §3, §4
In general terms: The SRB assay estimates cell density from bound dye.

On to `Cc1csc2ncnc(OCc3cc(-c4ccc(Br)cc4)no3)c12` [Compound S-8], for which the inhibition at 100 µM in assay [1] amounted to 85.9%.

With `c1ccc(-c2cc(COc3ncnc4sc5c(c34)CCCC5)on2)cc1` [Compound S-121], in assay [1], the inhibition at 100 µM came out at 54.1%.

Take `Cc1csc2ncnc(OCc3cc(-c4ccc(Cl)cc4)no3)c12` [Compound S-5]: in assay [1], the inhibition at 100 µM is 80.8%.

Turning to `CCc1cc2c(OCc3cc(-c4ccc(Br)cc4)no3)ncnc2s1` [Compound S-88], in assay [2], the inhibition at 100 µM came to 60.9%.

`Cc1sc2ncnc(OCc3cc(-c4ccc(Cl)cc4Cl)no3)c2c1C` [Compound S-107]: the inhibition at 100 µM in assay [2] worked out at 72.9%.

With `Cc1ccc(-c2cc(COc3ncnc4sc(C)c(C)c34)on2)cc1` [Compound S-102], the inhibition at 100 µM in assay [2] is 62.9%.

In the case of `COc1ccc(-c2cc(COc3ncnc4scc(C)c34)on2)cc1` [Compound S-3], in assay [2], the “Inhibitory ratio (%)” value is recorded as 70.0% and the inhibition at 100 µM stood at 70%. The inhibition at 100 µM in assay [1] worked out at 86.4%.

Take `CCc1cc2c(OCc3cc(-c4ccc(Cl)cc4Cl)no3)ncnc2s1` [Compound S-87]: the inhibition at 100 µM in assay [2] worked out at 72.7%.

Turning to `COc1ccc(-c2cc(COc3ncnc4sc(C)c(C)c34)on2)cc1` [Compound S-103], in assay [2], the inhibition at 100 µM came to 71.1%.

Take `Cc1sc2ncnc(OCc3cc(-c4ccccc4Cl)no3)c2c1C` [Compound S-106]: the inhibition at 100 µM in assay [1] worked out at 71.6%.

For `CCc1cc2c(OCc3cc(-c4ccc(OC)cc4)no3)ncnc2s1` [Compound S-83], the inhibition at 100 µM in assay [2] came to 69.6%; in assay [1], 89.4%.

For `Cc1ccc(-c2cc(COc3ncnc4scc(C)c34)on2)cc1` [Compound S-2], the inhibition at 100 µM in assay [1] amounted to 80%.

Turning to `Cc1csc2ncnc(OCc3cc(-c4ccccc4)no3)c12` [Compound S-1, 5-methyl-4-((3-phenyl-isoxazol-5-yl)-methoxy-)-thieno[2,3-d]pyrimidine], the inhibition at 100 µM in assay [1] amounted to 85%.

As to `Cc1csc2ncnc(OCc3cc(-c4ccccc4Cl)no3)c12` [Compound S-6], in assay [1], the inhibition at 100 µM is 75.6%.

With `Cc1sc2ncnc(OCc3cc(-c4ccccc4)no3)c2c1C` [Compound S-101], the inhibition at 100 µM in assay [2] turned out to be 68.8%. Also, in assay [1], the “Inhibitory ratio (%)” value worked out at 88.0% and the inhibition at 100 µM was determined as 88%.
